From article PMC10313180, “Structure snapshots reveal the mechanism of a bacterial membrane lipoprotein N-acyltransferase” (Science Advances, 2023)
No end group written: not given here. *: point of attachment. dipalmitoylglyceryl = dipalmitoylglyceryl (diacylglyceryl moiety on the cysteine); Palmitoyl = CCCCCCCCCCCCCCCC(=O)*

Experiments:
[1] = target: T1, LntPae (Pseudomonas aeruginosa, UniProt Q9ZI86); test: TLC of FP2 to FP3 conversion; format: biochemical; details: acyl donor, HA-treated enzyme; 500 uM GPL, 150 uM FP2, pH 7.5, 37 C, 90 min
T1 construct: gene lnt; full length, N-terminal thrombin-cleavable His6 tag, pET28a, expressed in E. coli C41(DE3); membrane protein in LMNG micelles or cubic mesophase
T1 sequence (Q9ZI86 1-511): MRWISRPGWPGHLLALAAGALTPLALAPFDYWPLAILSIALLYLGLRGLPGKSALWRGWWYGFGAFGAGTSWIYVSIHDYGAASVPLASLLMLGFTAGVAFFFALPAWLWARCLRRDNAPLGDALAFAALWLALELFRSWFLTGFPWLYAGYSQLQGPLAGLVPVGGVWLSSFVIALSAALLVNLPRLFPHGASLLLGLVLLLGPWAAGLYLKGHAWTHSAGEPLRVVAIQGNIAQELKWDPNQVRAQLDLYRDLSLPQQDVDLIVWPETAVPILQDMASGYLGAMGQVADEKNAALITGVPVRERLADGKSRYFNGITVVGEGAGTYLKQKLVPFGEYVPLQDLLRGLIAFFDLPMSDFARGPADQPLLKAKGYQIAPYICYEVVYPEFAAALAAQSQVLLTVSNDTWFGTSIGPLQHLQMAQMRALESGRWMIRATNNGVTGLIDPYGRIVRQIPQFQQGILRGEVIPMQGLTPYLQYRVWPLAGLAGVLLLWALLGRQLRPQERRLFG

[2] = target: T2, LntEco (Escherichia coli, UniProt P23930); test: TLC of FP2 to FP3 conversion; format: biochemical; details: acyl donor, HA-treated enzyme; 500 uM GPL, 150 uM FP2, pH 7.5, 37 C, 90 min
T2 construct: gene lnt; full length, N-terminal thrombin-cleavable His6 tag, pET28a, expressed in E. coli C43(DE3); membrane protein in LMNG or DDM micelles; 57 kDa; HA-treated for GPL specificity assay

[3] = target: T2, LntEco; test: X-ray crystallography (in surfo); format: binding; details: covalent; dithiocarbamate at catalytic Cys387; lyso-PE also bound; 2.66 A
[4] = target: T1, LntPae; test: X-ray crystallography (in meso); format: binding; details: covalent; at catalytic Cys382; two monooleins in pocket; 2.6 A
[5] = target: T3, LntEco Cys387Ala (apolipoprotein N-acyltransferase from E. coli, inactive mutant) (E. coli, UniProt P23930 1-512, Cys387Ala); test: cryo-EM structure; Lnt mutant (16 mg/ml) incubated with Pam3CSK4 or FP2 (10 mg/ml in DMSO) for 1 hour at 21°C, then Superdex 200 10/300 Increase in 20 mM sodium citrate pH 6, 150 mM NaCl, 0.001% LMNG; protein in a detergent micelle; details: both partners purified
T3 construct: Apolipoprotein N-acyltransferase Lnt, E. coli, 57-kDa membrane protein; gene synthesized and cloned into pET28a (Nde I/Xho I); residues counted in E. coli numbering; The His6 tag is thrombin-cleavable; no cleavage step is described; In a detergent micelle (LMNG); also called Lnt Cys387Ala; C387A; source: E. coli C43(DE3), purified (Ni-NTA, Superdex 200) in LMNG

Molecule | TLC of FP2 to FP3 conversion [1] | TLC of FP2 to FP3 conversion [2] | X-ray crystallography (in surfo) [3] | X-ray crystallography (in meso) [4] | binding result [5]
CCCCCCCC/C=C\CCCCCCCC(=O)O[C@H](COC(=O)CCCCCCCCCCCCCCC)COP(=O)(O)OCCN [POPE, palmitoyloleoylphosphatidylethanolamine] | (POPE) were effective acyl donors for LntEco and LntPae | (POPE) were effective acyl donors for LntEco and LntPae | – | – | –
CCCCCCCC/C=C\CCCCCCCC(=O)O[C@H](COC(=O)CCCCCCCCCCCCCCC)COP(=O)(O)OCC(O)CO (stereo partly shown) [POPG, palmitoyloleoylphosphatidylglycerol] | (POPE) were effective acyl donors for LntEco and LntPae | palmitoyloleoylphosphatidylglycerol (POPG) and palmitoyloleoylphosphatidylethanolamine (POPE) were effective acyl donors for LntEco | – | – | –
CCCCCCCCCCCCCCN=C=S [TITC, tetradecyl-1-isothiocyanate] | – | – | Crystals of the TITC-modified protein (Lnt-TITC), grown in the presence of E. coli GPLs | a structure of the TITC-modified LntPae was obtained with two monooleins in the binding pocket | –
Palmitoyl-C(dipalmitoylglyceryl)SKKKK (Printed in three-letter code: Cys-Ser-Lys-Lys-Lys-Lys; triacylated bacterial lipoprotein peptide analog; Triacylated lipopeptide; also called TA-BLPtide product; BLPtide; source: synthetic peptide (commercial or in-house synthesized BLP peptide analog)) [Pam3CSK4, Cys(Pam3)-Ser-(Lys)4] | – | – | – | – | binds
